pKi: −log10 of the molar value.
Columns and labels:
[1] = Safety: treatment-emergent adverse events in study CL-0537; type: in vivo, healthy subjects
[2] = Safety: treatment-emergent adverse events in study CL-0538; type: in vivo, healthy subjects
[3] = Safety and tolerability across the 3 studies; type: in vivo, healthy subjects; conditions: roxadustat 200 mg, observation periods of the 3 studies
CYP2C8 = conditions: read-out: inhibition constant (Ki); in vitro; cited from earlier work
[4] = cited from earlier work

Structure (SMILES): Cc1nc(C(=O)NCC(=O)O)c(O)c2ccc(Oc3ccccc3)cc12 [Roxadustat]
- TEAE headache, subjects ([1]; CL-0537): 7.1%
- TEAE nasopharyngitis, subjects ([1]; CL-0537): 0.0%
- number of TEAEs considered related to the study drug ([1]; investigator assessment): 4
- subjects with TEAEs considered related to the study drug ([1]; investigator assessment): 4 (14.3%) n (%)
- TEAE dry mouth, subjects ([2]; CL-0538): 8.3%
- TEAE headache, subjects ([2]; CL-0538): 4.2%
- number of TEAEs considered possibly related to the study drug ([2]; investigator assessment): 3
- subjects with TEAEs considered possibly related to the study drug ([2]; investigator assessment): 2 (8.3%) n (%)
- deaths, serious TEAEs, AEs leading to discontinuation [3]: did not result in any deaths, serious TEAEs, or AEs leading to discontinuation of study drug
- pKi (CYP2C8): 4.80
- terminal elimination half-life (t1/2) ([4]; after single-dose oral administration, healthy subjects): ≈ 12 hours
- time to maximum plasma concentrations (Cmax) after dosing ([4]; fasted state): ≤ 2 h
- time to reach maximum plasma concentration (Cmax) ([4]; oral, healthy subjects): ≤ 2 h

Reference: paper PMC9306950 (Clinical Pharmacology in Drug Development, 2022)
